# Columns and labels:
# Format in all cases: functional
# MDA-MB-435 [1] = assay: Cytotoxicity against human MDA-MB-435 cells assessed as cell growth at 10 uM after 48 hrs by sulforhodamine B assay relative to control; details: MDA-MB-435, 48 h, read-out: Activity
# PC-3 = assay: Cytotoxicity against human PC3 cells assessed as growth inhibition after 48 hrs by sulforhodamine B assay; details: PC-3, 48 h
# NCI-H226 = assay: Cytotoxicity against human NCI-H226 cells assessed as cell growth at 0.01 uM after 48 hrs by sulforhodamine B assay relative to control; details: NCI-H226, 48 h, read-out: Activity
# OVCAR-3 = assay: Cytotoxicity against human OVCAR3 cells assessed as cell growth at 0.1 uM after 48 hrs by sulforhodamine B assay relative to control; details: OVCAR-3, 48 h, read-out: Activity
# SW-620 [2] = assay: Cytotoxicity against human SW620 cells assessed as cell growth at 100 uM after 48 hrs by sulforhodamine B assay relative to control; details: SW-620, 48 h, read-out: Activity
# MCF7 [3] = assay: Cytotoxicity against human MCF7 cells assessed as cell growth at 0.1 uM after 48 hrs by sulforhodamine B assay relative to control; details: MCF7, 48 h, read-out: Activity
# OVCAR-8 [4] = assay: Cytotoxicity against human OVCAR8 cells assessed as cell growth at 0.01 uM after 48 hrs by sulforhodamine B assay relative to control; details: OVCAR-8, 48 h, read-out: Activity
# HL-60(TB) = assay: Cytotoxicity against human HL-60(TB) cells assessed as cell growth at 0.01 uM after 48 hrs by sulforhodamine B assay relative to control; details: HL-60, 48 h, read-out: Activity
# KM12 [5] = assay: Cytotoxicity against human KM12 cells assessed as cell growth at 1 uM after 48 hrs by sulforhodamine B assay relative to control; details: KM12, 48 h, read-out: Activity
# MDA-MB-435 [6] = assay: Cytotoxicity against human MDA-MB-435 cells assessed as cell growth at 100 uM after 48 hrs by sulforhodamine B assay relative to control; details: MDA-MB-435, 48 h, read-out: Activity
# ACHN = assay: Cytotoxicity against human ACHN cells assessed as cell growth at 0.1 uM after 48 hrs by sulforhodamine B assay relative to control; details: read-out: Activity
# OVCAR-8 [7] = assay: Cytotoxicity against human OVCAR8 cells assessed as cell growth at 1 uM after 48 hrs by sulforhodamine B assay relative to control; details: OVCAR-8, 48 h, read-out: Activity
# OVCAR-5 = assay: Cytotoxicity against human OVCAR5 cells assessed as growth inhibition after 48 hrs by sulforhodamine B assay; details: OVCAR-5, 48 h
# Hs-578T = assay: Cytotoxicity against human Hs 578T cells assessed as cell growth at 1 uM after 48 hrs by sulforhodamine B assay relative to control; details: read-out: Activity
# SR [8] = assay: Cytotoxicity against human SR cells assessed as cell growth at 100 uM after 48 hrs by sulforhodamine B assay relative to control; details: read-out: Activity
# NCI/ADR-RES [9] = assay: Cytotoxicity against human NCI/ADR-RES cells assessed as cell growth at 1 uM after 48 hrs by sulforhodamine B assay relative to control; details: read-out: Activity
# IGROV-1 [10] = assay: Cytotoxicity against human IGROV1 cells assessed as growth inhibition after 48 hrs by sulforhodamine B assay; details: IGROV-1, 48 h
# CCRF-CEM = assay: Cytotoxicity against human CCRF-CEM cells assessed as cell growth at 0.1 uM after 48 hrs by sulforhodamine B assay relative to control; details: read-out: Activity
# SR [11] = assay: Cytotoxicity against human SR cells assessed as cell growth at 1 uM after 48 hrs by sulforhodamine B assay relative to control; details: read-out: Activity
# NCI/ADR-RES [12] = assay: Cytotoxicity against human NCI/ADR-RES cells assessed as growth inhibition after 48 hrs by sulforhodamine B assay
# HOP-62 [13] = assay: Cytotoxicity against human HOP62 cells assessed as cell growth at 10 uM after 48 hrs by sulforhodamine B assay relative to control; details: HOP-62, 48 h, read-out: Activity
# MCF7 [14] = assay: Cytotoxicity against human MCF7 cells assessed as cell growth at 0.01 uM after 48 hrs by sulforhodamine B assay relative to control; details: MCF7, 48 h, read-out: Activity
# K562 = assay: Cytotoxicity against human K562 cells assessed as growth inhibition after 48 hrs by sulforhodamine B assay; details: K562, 48 h
# SK-OV-3 = assay: Cytotoxicity against human SKOV3 cells assessed as growth inhibition after 48 hrs by sulforhodamine B assay; details: SK-OV-3, 48 h
# COLO 205 = assay: Cytotoxicity against human COLO205 cells assessed as growth inhibition after 48 hrs by sulforhodamine B assay; details: COLO 205, 48 h
# KM12 [15] = assay: Cytotoxicity against human KM12 cells assessed as cell growth at 0.1 uM after 48 hrs by sulforhodamine B assay relative to control; details: KM12, 48 h, read-out: Activity
# Malme-3M = assay: Cytotoxicity against human MALME-3M cells assessed as cell growth at 0.1 uM after 48 hrs by sulforhodamine B assay relative to control; details: read-out: Activity
# IGROV-1 [16] = assay: Cytotoxicity against human IGROV1 cells assessed as cell growth at 10 uM after 48 hrs by sulforhodamine B assay relative to control; details: IGROV-1, 48 h, read-out: Activity
# MDA-MB-435 [17] = assay: Cytotoxicity against human MDA-MB-435 cells assessed as growth inhibition after 48 hrs by sulforhodamine B assay; details: MDA-MB-435, 48 h
# HOP-62 [18] = assay: Cytotoxicity against human HOP62 cells assessed as cell growth at 0.1 uM after 48 hrs by sulforhodamine B assay relative to control; details: HOP-62, 48 h, read-out: Activity
# SF-539 = assay: Cytotoxicity against human SF539 cells assessed as cell growth at 1 uM after 48 hrs by sulforhodamine B assay relative to control; details: SF-539, 48 h, read-out: Activity
# T47D = assay: Cytotoxicity against human T47D cells assessed as cell growth at 1 uM after 48 hrs by sulforhodamine B assay relative to control; details: read-out: Activity
# MOLT-4 = assay: Cytotoxicity against human MOLT4 cells assessed as cell growth at 10 uM after 48 hrs by sulforhodamine B assay relative to control; details: MOLT-4, 48 h, read-out: Activity
# SW-620 [19] = assay: Cytotoxicity against human SW620 cells assessed as cell growth at 0.01 uM after 48 hrs by sulforhodamine B assay relative to control; details: SW-620, 48 h, read-out: Activity
# A498 = assay: Cytotoxicity against human A498 cells assessed as growth inhibition after 48 hrs by sulforhodamine B assay; details: A498, 48 h
# NCI-H460 = assay: Cytotoxicity against human NCI-H460 cells assessed as cell growth at 10 uM after 48 hrs by sulforhodamine B assay relative to control; details: NCI-H460, 48 h, read-out: Activity
# SN12C = assay: Cytotoxicity against human SN12C cells assessed as cell growth at 1 uM after 48 hrs by sulforhodamine B assay relative to control; details: read-out: Activity
smiles,measurement,setting,value
COc1ccc(-c2cc(/C=C/C(=O)c3cc(OC)c(OC)c(OC)c3)[nH]n2)cc1OC,growth at 10 µM,MDA-MB-435 [1],-55%
same,GI50,PC-3,1.99 µM
same,LC50,PC-3,48.2 µM
same,TGI,PC-3,10.3 µM
same,growth at 0.01 µM,NCI-H226,93%
same,growth at 0.1 µM,OVCAR-3,100%
same,growth at 100 µM,SW-620 [2],-43%
same,growth at 0.1 µM,MCF7 [3],86%
same,growth at 0.01 µM,OVCAR-8 [4],100%
same,growth at 0.01 µM,HL-60(TB),98%
same,growth at 1 µM,KM12 [5],45%
same,growth at 100 µM,MDA-MB-435 [6],-78%
same,growth at 0.1 µM,ACHN,91%
same,growth at 1 µM,OVCAR-8 [7],80%
same,GI50,OVCAR-5,1.76 µM
same,LC50,OVCAR-5,13.7 µM
same,TGI,OVCAR-5,4.31 µM
same,growth at 1 µM,Hs-578T,86%
same,growth at 100 µM,SR [8],-14%
same,growth at 1 µM,NCI/ADR-RES [9],81%
same,GI50,IGROV-1 [10],2.72 µM
same,LC50,IGROV-1 [10],46.7 µM
same,TGI,IGROV-1 [10],8.61 µM
same,growth at 0.1 µM,CCRF-CEM,91%
same,growth at 1 µM,SR [11],5%
same,GI50,NCI/ADR-RES [12],2.69 µM
same,LC50,NCI/ADR-RES [12],> 100 µM
same,TGI,NCI/ADR-RES [12],37 µM
same,growth at 10 µM,HOP-62 [13],-57%
same,growth at 0.01 µM,MCF7 [14],92%
same,GI50,K562,0.73 µM
same,LC50 (concentration killing 50% of cells),K562,> 100 µM
same,TGI,K562,9.71 µM
same,GI50,SK-OV-3,5.47 µM
same,LC50,SK-OV-3,45.5 µM
same,TGI,SK-OV-3,19 µM
same,GI50,COLO 205,1.75 µM
same,LC50,COLO 205,7.28 µM
same,TGI,COLO 205,3.57 µM
same,growth at 0.1 µM,KM12 [15],92%
same,growth at 0.1 µM,Malme-3M,89%
same,growth at 10 µM,IGROV-1 [16],-7%
same,GI50,MDA-MB-435 [17],1.78 µM
same,LC50,MDA-MB-435 [17],9.2 µM
same,TGI,MDA-MB-435 [17],4.05 µM
same,growth at 0.1 µM,HOP-62 [18],80%
same,growth at 1 µM,SF-539,17%
same,growth at 1 µM,T47D,51%
same,growth at 10 µM,MOLT-4,-4%
same,growth at 0.01 µM,SW-620 [19],98%
same,GI50,A498,1.46 µM
same,LC50,A498,22.3 µM
same,TGI,A498,4.99 µM
same,growth at 10 µM,NCI-H460,-41%
same,growth at 1 µM,SN12C,87%
COc1ccc(C(=O)/C=C/c2cc(-c3ccc(OC)c(OC)c3)n[nH]2)cc1OC,growth at 10 µM,MDA-MB-435 [1],-69%
same,GI50,PC-3,1.98 µM
same,TGI,PC-3,35.7 µM
same,growth at 0.01 µM,NCI-H226,94%
same,growth at 0.1 µM,OVCAR-3,109%
same,growth at 100 µM,SW-620 [2],-27%
same,growth at 0.1 µM,MCF7 [3],94%
same,growth at 0.01 µM,OVCAR-8 [4],99%
same,growth at 0.01 µM,HL-60(TB),101%
same,growth at 1 µM,KM12 [5],37%
same,growth at 100 µM,MDA-MB-435 [6],2%
same,growth at 0.1 µM,ACHN,96%
same,growth at 1 µM,OVCAR-8 [7],80%
same,GI50,OVCAR-5,1.76 µM
same,TGI,OVCAR-5,5.24 µM
same,growth at 1 µM,Hs-578T,87%
same,growth at 100 µM,SR [8],-17%
same,growth at 1 µM,NCI/ADR-RES [9],89%
same,GI50,IGROV-1 [10],3.13 µM
same,TGI,IGROV-1 [10],53.8 µM
same,growth at 0.1 µM,CCRF-CEM,94%
same,growth at 1 µM,SR [11],5%
same,GI50,NCI/ADR-RES [12],3.43 µM
same,TGI,NCI/ADR-RES [12],33.1 µM
same,growth at 10 µM,HOP-62 [13],-25%
same,growth at 0.01 µM,MCF7 [14],85%
same,GI50,K562,0.619 µM
same,TGI,K562,> 100 µM
same,GI50,SK-OV-3,3.13 µM
same,TGI,SK-OV-3,33.3 µM
same,GI50,COLO 205,1.55 µM
same,TGI,COLO 205,3.1 µM
same,growth at 0.1 µM,KM12 [15],100%
same,growth at 0.1 µM,Malme-3M,106%
same,growth at 10 µM,IGROV-1 [16],6%
same,GI50,MDA-MB-435 [17],1.72 µM
same,growth at 0.1 µM,HOP-62 [18],84%
same,growth at 1 µM,SF-539,35%
same,growth at 1 µM,T47D,60%
same,growth at 10 µM,MOLT-4,5%
same,growth at 0.01 µM,SW-620 [19],96%
same,GI50,A498,1.27 µM
same,TGI,A498,3.2 µM
same,growth at 10 µM,NCI-H460,-20%
same,growth at 1 µM,SN12C,85%

# From ChEMBL document CHEMBL4138123, “Design, synthesis and biological evaluation of novel pyrazolochalcones as potential modulators of PI3K/Akt/mTOR pathway and inducers of apoptosis in breast cancer cells” (Eur J Med Chem, 2017)
